In patent publication US6960575B2, “Thiazine derivatives” (Santen Pharmaceutical Co., Ltd., priority 1999, dated 2005):

target: T1, chymase extracted from a dog cardiac tissue (Canis lupus familiaris, UniProt P21842); test: Chymase inhibitory effect (liberation of His-Leu from angiotensin I, fluorescence); type: biochemical; details: substrate angiotensin I; 37° C., one hour; pH 8 reaction buffer; read-out: IC50 (concentration required to inhibit the chymase enzymatic activity by 50%)
T1 construct: The obtained supernatant is used as a chymase enzyme solution; from tissue; host or cells: beagle heart, left ventricle (2.0 M KCl / 1% Triton X-100 extract)
T1 sequence (P21842 22-249): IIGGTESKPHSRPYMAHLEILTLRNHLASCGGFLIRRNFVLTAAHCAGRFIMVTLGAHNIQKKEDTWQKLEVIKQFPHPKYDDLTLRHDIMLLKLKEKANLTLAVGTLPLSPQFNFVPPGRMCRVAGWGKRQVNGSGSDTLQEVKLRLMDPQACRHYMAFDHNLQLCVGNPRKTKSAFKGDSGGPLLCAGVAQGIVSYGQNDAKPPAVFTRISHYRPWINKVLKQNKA
Excerpt: Chymase (enzyme) causes angiotensin I (substrate) to liberate a dipeptide (His-Leu) by the enzyme reaction with the substrate. It was reported that an enzymatic activity of chymase can be measured by measuring fluorescence intensity of the resulting peptide (Biochem. Biophys. Res. Com., 149 (3) 1186 (1987)). Since drugs having chymase inhibitory activities suppress this liberation of the dipeptide, the chymase inhibitory activities of the drugs can be measured by measuring fluorescence intensity. In the present pharmacological test, chymase inhibitory effects of the present compounds were studied by using chymase extracted from a dog cardiac tissue (J. Biol. Chem., 265 (36), 22348 (1990)).
• 1. A beagle is killed by drawing blood under Nembutal anesthesia, a heart is enucleated, and left ventricle is separated. • 2. This left ventricle is finely minced, and the tissue weight is measured. • 3. A 0.02 M Tris-HCl buffer (pH 7.4) is added to the tissue in an amount of 10 times by volume the tissue weight. The obtained mixture is homogenized at 8,000 rpm for 20 seconds and then centrifuged at 4° C. and 21,000 rpm for 30 minutes, and the resulting supernatant is discarded. • 4. The same procedure as the above 3 is repeated twice for the residue. Then, a 0.02 M Tris-HCl buffer (pH 7.4) containing 1% Triton X-100 and 0.01 M potassium chloride is added to the residue in an amount of 10 times by volume the amount of the residue. The obtained mixture is homogenized at 8,000 rpm for 20 seconds, then incubated at 4° C. for one hour and centrifuged at 21,000 rpm for 30 minutes, and the supernatant is discarded. • 5. A 0.02 M Tris-HCl buffer (pH 7.4) containing 1% Triton X-100 and 0.5 M potassium chloride is added to the residue in an amount of 10 times by volume the amount of the residue. The obtained mixture is homogenized at 8,000 rpm for 20 seconds, then incubated at 4° C. for one hour and centrifuged at 21,000 rpm for 30 minutes, and the supernatant is discarded. • 6. A 0.02 M Tris-HCl buffer (pH 7.4) containing 1% Triton X-100 and 2.0 M potassium chloride is added to the residue in an amount of 10 times the amount of the residue. The obtained mixture is homogenized at 8,000 rpm for 20 seconds, then incubated at 4° C. for one hour and centrifuged at 21,000 rpm for 30 minutes. The obtained supernatant is used as a chymase enzyme solution. [2. Preparation of Reaction Buffer]
Tris-HCl and disodium ethylenediaminetetraacetate are dissolved in water so that their concentrations are 92.3 mM and 12.0 mM respectively to prepare a reaction buffer adjusted to pH 8.
Angiotensin I is dissolved in water to prepare a 1.54 mM substrate solution.
A test compound is dissolved in dimethyl sulfoxide to prepare 3.0×10^−3M, 3.0×10^−4 M, 3.0×10^−5 M and 3.0×10^−6 M test compound solutions.
• 1. The reaction buffer (32.5 μl), the substrate solution (75.0 μl), the chymase enzyme solution (37.5 μl) and the test compound solution (5 μl) are mixed. • 2. The obtained mixture is incubated at 37° C. for one hour. • 3. To the mixture is added 15% trichloroacetic acid (225 μl), and the whole is centrifuged at 4° C. and 14,000 rpm for five minutes. • 4. The supernatant is taken out. A 1% orthophthalaldehyde/methanol solution (165 μl) is added to 300 μl of this supernatant, and the whole is stirred and allowed to stand at room temperature for 10 minutes. • 5. 1.5 M Hydrochloric acid (300 μl) is added to the resulting mixture, and the whole is stirred and centrifuged at 4° C. and 14,000 rpm for two minutes. • 6. The supernatant is taken out and irradiated with light having a wavelength of 340 nm, and fluorescence intensity is measured at a wavelength of 455 nm.
The blank of this test is defined as follows. […]

IC50 [nM]	Structure (SMILES)
210	CC(C)OC(=O)C(=O)[C@H](Cc1ccccc1)NC(=O)CN1C(=O)C(C(C)C)N(C(=O)c2cccnc2)C=C1c1ccccc1 (mixture of isomers) [Compound No. 2-31, Isopropyl (3S)-3-{(3RS)-3-isopropyl-2-oxo-6-phenyl-4-(3-pyridylcarbonyl)-1,2,3,4-tetrahydropyrazin-1-yl}methylcarbonylamino-2-oxo-4-phenylbutyrate]
3800	CC(=O)N1C=C(c2ccccc2)N(CC(=O)N[C@@H](Cc2ccccc2)C(=O)c2nc3ccccc3s2)C(=O)C1C(C)C (mixture of isomers) [Compound No. 2-46, (2S)-2-{(3RS)-4-Acetyl-3-isopropyl-2-oxo-6-phenyl-1,2,3,4-tetrahydropyrazin-1-yl}methylcarbonylamino-1-(1,3-benzothiazol-2-yl)-1-oxo-3-phenylpropane]
500	CC(=O)N1C=C(c2ccccc2)N(CC(=O)N[C@@H](Cc2ccccc2)C(=O)C2=NCCO2)C(=O)C1C(C)C (mixture of isomers) [Compound No. 2-47, (2S)-2-{(3RS)-4-Acetyl-3-isopropyl-2-oxo-6-phenyl-1,2,3,4-tetrahydropyrazin-1-yl}methylcarbonylamino-1-(4,5-dihydro-1,3-oxazol-2-yl)-1-oxo-3-phenylpropane]
1200	CC(=O)N1C=C(c2ccccc2)N(CC(=O)N[C@@H](Cc2ccccc2)C(=O)C2=NCCS2)C(=O)C1C(C)C (mixture of isomers) [Compound No. 2-48, (2S)-2-{(3RS)-4-Acetyl-3-isopropyl-2-oxo-6-phenyl-1,2,3,4-tetrahydropyrazin-1-yl}methylcarbonylamino-1-(4,5-dihydro-1,3-thiazol-2-yl)-1-oxo-3-phenylpropane]
1500	CC(=O)N1C=C(c2ccccc2)N(CC(=O)NC(Cc2ccccc2)C(=O)C(F)(F)F)C(=O)C1C(C)C (racemic) [Compound No. 4-1, (3RS)-3-{(3RS)-4-Acetyl-3-isopropyl-2-oxo-6-phenyl-1,2,3,4-tetrahydropyrazin-1-yl}methylcarbonylamino-2-oxo-4-phenyl-1,1,1-trifluorobutane]

More lines, now with the values behind:

Structure (SMILES)	IC50 [nM]
CC(C)OC(=O)C(=O)[C@H](Cc1ccccc1)NC(=O)CN1C(=O)C(C(C)C)N(C(=O)c2ccncc2)C=C1c1ccccc1 (mixture of isomers) [Compound No. 2-32, Isopropyl (3S)-3-{(3RS)-3-isopropyl-2-oxo-6-phenyl-4-(4-pyridylcarbonyl)-1,2,3,4-tetrahydropyrazin-1-yl}methylcarbonylamino-2-oxo-4-phenylbutyrate]	360
CC(C)OC(=O)C(=O)[C@H](Cc1ccccc1)NC(=O)CN1C(=O)C(C(C)C)N(S(=O)(=O)c2ccccc2)C=C1c1ccccc1 (mixture of isomers) [Compound No. 2-34, Isopropyl (3S)-3-{(3RS)-4-benzenesulfonyl-3-isopropyl-2-oxo-6-phenyl-1,2,3,4-tetrahydropyrazin-1-yl}methylcarbonylamino-2-oxo-4-phenylbutyrate]	250
CC(C)OC(=O)C(=O)[C@H](Cc1ccccc1)NC(=O)CN1C(=O)C(C(C)C)SC=C1c1ccccc1 (mixture of isomers) [Compound No. 2-63, Isopropyl (3S)-3-{(2RS)-2-isopropyl-3-oxo-5-phenyl-3,4-dihydro-2H-1,4-thiazin-4-yl}methylcarbonylamino-2-oxo-4-phenylbutyrate]	320
COc1ccc(C2=CSC(C(C)C)C(=O)N2CC(=O)N[C@@H](Cc2ccccc2)C(=O)C(=O)OC(C)C)cc1 (mixture of isomers) [Compound No. 2-65, Isopropyl (3S)-3-{(2RS)-2-isopropyl-5-(4-methoxyphenyl)-3-oxo-3,4-dihydro-2H-1,4-thiazin-4-yl}methylcarbonylamino-2-oxo-4-phenylbutyrate]	280
CC(C)C1C(=O)N(CC(=O)N[C@@H](Cc2ccccc2)C(=O)C2=NC(C)(C)CO2)C(c2ccccc2)=CN1C(=O)c1ccccc1 (mixture of isomers) [Compound No. 10-7, (2S)-2-{(3RS)-4-Benzoyl-3-isopropyl-2-oxo-6-phenyl-1,2,3,4-tetrahydropyrazin-1-yl}methylcarbonylamino-1-(4,4-dimethyl-4,5-dihydro-1,3-oxazol-2-yl)-1-oxo-3-phenylpropane]	370
CC(C)OC(=O)C(=O)[C@H](Cc1ccccc1)NC(=O)CN1C(=O)[C@@H](C(C)C)N(C(=O)c2ccccc2)C=C1c1ccccc1 [Compound No. 2-22, Isopropyl (3S)-3-{(3R)-4-benzoyl-3-isopropyl-2-oxo-6-phenyl-1,2,3,4-tetrahydropyrazin-1-yl}methylcarbonylamino-2-oxo-4-phenylbutyrate]	200

tested on: not given; test: not given; details: not given

Structure (SMILES)	melting point [°C]
CC(C)[C@@H]1C(=O)N(CC(=O)N[C@@H](Cc2ccccc2)C(=O)C2=NC(C)(C)CO2)C(c2ccccc2)=CN1C(=O)c1ccc[n+](CC(N)=O)c1.[Br-]	110
CC(C)[C@@H]1C(=O)N(CC(=O)N[C@@H](Cc2ccccc2)C(=O)C2=NCC(C)(C)S2)C(c2ccccc2)=CN1C(=O)c1ccncc1 [Compound No. 10-10, (2S)-1-(5,5-Dimethyl-4,5-dihydro-1,3-thiazol-2-yl)-2-{(3R)-3-isopropyl-2-oxo-6-phenyl-4-(4-pyridylcarbonyl)-1,2,3,4-tetrahydropyrazin-1-yl}methylcarbonylamino-1-oxo-3-phenylpropane]	100 to 125
CC(C)[C@@H]1C(=O)N(CC(=O)N[C@@H](Cc2ccccc2)C(=O)C2=NC(C)(C)CO2)C(c2ccccc2)=CN1C(=O)c1ccc[n+](Cc2ccccc2)c1.[Br-] [Compound No. 21-3, 1-Benzyl-3-[(2R)-4-{(1S)-1-benzyl-2-(4,4-dimethyl-4,5-dihydro-1,3-oxazol-2-yl)-2-oxoethylcarbamoylmethyl}-2-isopropyl-3-oxo-5-phenyl-1,2,3,4-tetrahydro-1-pyrazinylcarbonyl]pyridinium bromide]	135 to 150
CC(C)[C@@H]1C(=O)N(CC(=O)N[C@@H](Cc2ccccc2)C(=O)C2=NC(C)(C)CO2)C(c2ccccc2)=CN1C(=O)c1cc[n+](CC(N)=O)cc1.[I-] [Compound No. 21-12, 4-{(2R)-4-[(1S)-1-Benzyl-2-(4,4-dimethyl-4,5-dihydro-1,3-oxazol-2-yl)-2-oxoethylcarbamoylmethyl]-2-isopropyl-3-oxo-5-phenyl-1,2,3,4-tetrahydro-1-pyrazinylcarbonyl}-1-(carbamoylmethyl)pyridinium iodide]	78 to 85
